System: Nox1
Experiment: Nox1 expression (RT-PCR, immunoblot) in N27 cells exposed to toxins
Type: cell-based, rat
Conditions: N27 cells
Description: The NADPH oxidase is a multi-subunit enzyme that consists of the catalytic subunits (Nox isoforms) together with the regulatory subunits including p22phox, p47phox, p40phox, p67phox, Nox organizer 1 (Noxo1), Nox activator 1 (Noxa1), and small GTPase Rac1. In order to test whether dopaminergic (DA) cells are equipped with the NOX components, N27, a well-established rat DA cell line was examined (Prasad et al. 1994). The mRNAs encoding each Nox isoform and regulatory subunits were detected using RT-PCR. Since transcriptional induction of Nox1 and Nox4 has already been reported in several tissues under a variety of stimuli, transcripts were determined in both nontreated and 6-hydroxydopamine (6-OHDA), a DA neurodegenerative compound, treated DA cells. ROS generation as induced by 6-OHDA (100 μM) and subsequent cell death was observed. All Nox isoforms (Nox1, Nox2, Nox4, Duox1 and Duox2) except Nox3 and Nox5 were detected (FIG. 1A). […] Mitochondria, which have long been considered as a major source of ROS, play a key role in Nox1-mediated superoxide generation (Desouki et al. 2005). […] Cytoplasmic regulatory subunits including p47phox, Noxa1, and Noxo1 were constitutively expressed in DA cells as well (FIG. 1A). Noxa1 and Noxo1 are homologues of p67phox and p47phox, respectively. They are involved in Nox1-mediated superoxide generation (Banfi et al. 2003, Geiszt et al. 2003). […] The activation of a small GTPase Rac1 is indispensable for Nox1 and Nox2 activation (Bokoch 2002). GTP-bound active Rac1 was measured in DA cells treated with 6-OHDA for various duration from 1 h to 6 h.
Total RNA was extracted from N27 cells using Trizol reagent (Invitrogen, Carlsbad, Calif.). Reverse transcription was performed for 1 h at 42° C. with 1 μg of total RNA using 20 unit/μl of AMV reverse transcriptase (Roche Applied Science, Indianapolis, Ind.), and oligo-p(dT)15 as a primer. The samples were then heated at 99° C. for 5 min to terminate the reaction. The cDNA obtained from 1 μg total RNA was used as a template for PCR amplification. Oligonucleotide primers were designed based on Genebank entries for rat NOX1 (sense, 5′-[…]-3′ SEQ ID NO. 1; antisense, 5′-[…]-3′ SEQ ID NO. 2), rat NOX2 (sense, 5′-[…]-3′ SEQ ID NO. 3; antisense, 5′-[…]-3′ SEQ ID NO. 4), rat NOX4 (sense, 5′-[…]-3′ SEQ ID NO. 5; antisense, 5′-[…]-3′ SEQ ID NO. 6), rat NOXA1 (sense, 5′-[…]-3′ SEQ ID NO. 7; antisense, 5′-[…]-3′ SEQ ID NO. 8), rat NOXO1 (sense, 5′-[…]-3′ SEQ ID NO. 9; antisense, 5′-[…]-3′ SEQ ID NO. 10), rat p47 (sense, 5′-[…]-3′ SEQ ID NO 11; antisense, 5′-[…]-3′ SEQ ID NO. 12), rat Duox1 (sense, 5′-[…]-3′ SEQ ID NO. 13; antisense, 5′-[…]-3′SEQ ID NO. 14), rat Duox2 (sense, 5′-[…]-3′ SEQ ID NO. 15; antisense, 5′-[…]-3′ SEQ ID NO. 16) and rat GAPDH (sense, 5′-[…]-3′ SEQ ID NO. 17; antisense, 5′-[…]-3′ SEQ ID NO. 18). PCR mixes contained 10 μl of 2×PCR buffer, 1.25 mM of each dNTP, 10 pmol of each forward and reverse primer, and 2.5 units of Taq polymerase in the final volume of 20 μl. Amplification was performed in 35 cycles at 60° C., 30 sec; 72° C., 1 min; 94° C., 30 sec. After the last cycle, all samples were incubated for an additional 10 min at 72° C. for final extension step. PCR fragments were analyzed on 1.2% agarose gel in 0.5×TAE containing ethidium bromide. Amplification of GAPDH, a relatively invariant internal reference RNA, was performed in parallel, and cDNA amounts were normalized against GAPDH mRNA levels. The primer set specifically recognized only the gene of interest as indicated by amplification of a single band of expected size. […]

SMILES: NCCc1cc(O)c(O)cc1O [6-OHDA, 6-hydroxydopamine]
- Nox1 mRNA (RT-PCR) (100 μM, 6 h): robustly induced
- Nox1 expression (immunoblot) (24 h): induced Nox1 expression in a dose-dependent manner

From patent US9394544B2, “Ameliorating oxidative stress in neurodegenerative disease via Nox1 targeting” (University of Central Florida Research Foundation, Inc., priority 2013, dated 2016)
